Test results: patent US8058507B2, “HOPM1 mediated disease resistance to Pseudomonas syringae in Arabidopsis” (priority 2007, dated 2011)

Experiments:
Test in all cases: BFA treatment of bacteria-infiltrated detached leaves: bacterial multiplication and disease symptoms
Format in all cases: in vivo, Pseudomonas syringae
Pst DC3000 ΔCEL mutant = system: Pst DC3000 ΔCEL mutant
Protocol: (§1) A standard enumeration procedure involves pathogen inoculation, using any one of described methods, supra, followed by assaying bacterial populations present within host tissues at regular intervals. The population present within the tissue was calculated based on the dilution factor divided by the amount of tissue present in each sample. Plotting log (culturable bacterial number/cm^2 leaf tissue) against time (usually in days) after pathogen inoculation produced an unfitted curve, i.e. growth curve. For a review of methods, see, Katagiri et al., in The Arabidopsis Book, Somerville, Meyerowitz, Eds. (American Society of Plant Biologists, Rockville, Md., 2002), website://dx.doi.org/10.1199/tab.0039; herein incorporated by reference.
(§2) Leaves were harvested and surface sterilized as follows: 1) whole leaves were removed from a host plant and gently mixed in a 70% ethanol solution for 1 minute. Leaves were blotted briefly on paper towels then rinsed in sterile distilled water for 1 minute, then blotted dry on paper towels. Leaf disks were excised from leaves with a 0.5 cm^2 or smaller cork borer, depending on the size of the sample leaves; 2) leaf disks from the leaves of 2 or more independent replicate plants were pooled for a single tissue sample and placed in a 1.5-mL microfuge tube with 100 μL sterile distilled water, the amount of leaf tissue per tube was recorded as leaf surface area. Three or more samples were harvested for each time point. Steps 1 and 2 were repeated for each sample; 3) Tissue samples were ground with a microfuge tube plastic pestle, by hand or by using a small hand-held electric drill. […] The number of serial dilutions necessary to get countable colonies were determined for each sample, however dilutions to 10^−7 were usually sufficient for any bacterial strain; 7) The samples were plated on the appropriate medium (e.g., Low salt Luria Bertani) supplemented with the necessary antibiotics to select for the specific inoculated bacterial strain. Plating was done in the traditional way (100 μL of a single sample was spread on a single plate) or several 10 μL aliquots of the 1:10 serial dilutions were spotted on to a single plate and allowed to dry onto the surface; and 8) Plates were placed at 30° C. for approximately 2 days with a cfu value determined for each dilution of each sample. […]
(§3) Leaves were infiltrated with 1×10^6 cfu/ml of bacteria, detached, and placed in microtiter wells with petioles immersed in the 36 μM BFA (Sigma Co.) solution. […] Bacterial populations and disease symptoms were determined on day 0 and day three.

Pst DC3000 = settings: Col-0 gl1 plants treated with water or BFA (36 μM)
Protocol: as §1, §2, §3

hrcC mutant = settings: Col-0 gl1 plants treated with water or BFA (36 μM)
Protocol: as §1, §2, §3

In the case of `C[C@H]1CCC/C=C/[C@@H]2C[C@H](O)C[C@H]2[C@H](O)/C=C/C(=O)O1` [BFA, Brefeldin A], the “virulence (both multiplication and disease symptoms)” value (Pst DC3000 ΔCEL mutant; 36 μM BFA, wild-type Col-0 gl1 plants, day three) is reported as “significantly enhanced”, the “restoration of the virulence of the ΔCEL mutant, compared with AtMIN7 KO plants” value (Pst DC3000 ΔCEL mutant; BFA-treated leaves) is reported as “greater than that in the AtMIN7 KO plants” and the “multiplication or disease symptoms” value (Pst DC3000) is reported as “no significant differences”. For the same molecule, the “multiplication or disease symptoms” value (hrcC mutant) was “no significant differences”.
